Measured values published in the NIST ThermoML archive (doi:10.1021/acs.jced.7b01033).

What was measured:
[1] = 100.5 kPa, Liquid, Vibrating tube method
[2] = xn = mol fraction of the nth substance listed; conditions: 100.5 kPa, Liquid, Vibrating tube method

CCCCCCn1cc[n+](C)c1C.O=S(=O)([N-]S(=O)(=O)C(F)(F)F)C(F)(F)F
[1]
Conditions	mass density [kg/m3]
293.15 K	1362.2
303.15 K	1353.1
313.15 K	1344.1
323.15 K	1335.2
333.15 K	1326.3
343.15 K	1317.5
353.15 K	1308.7

CCCCn1cc[n+](C)c1C.O=S(=O)([N-]S(=O)(=O)C(F)(F)F)C(F)(F)F
[1]
Conditions	mass density [kg/m3]
293.15 K	1424
303.15 K	1414.6
313.15 K	1405.3
323.15 K	1396
333.15 K	1386.9
343.15 K	1377.8
353.15 K	1368.7

CCC[n+]1ccn(C)c1C.O=S(=O)([N-]S(=O)(=O)C(F)(F)F)C(F)(F)F
[1]
Conditions	mass density [kg/m3]
293.15 K	1460
303.15 K	1450.3
313.15 K	1440.7
323.15 K	1431.2
333.15 K	1421.7
343.15 K	1412.4
353.15 K	1403

CCn1cc[n+](C)c1C.O=S(=O)([N-]S(=O)(=O)C(F)(F)F)C(F)(F)F
[1]
Conditions	mass density [kg/m3]
293.15 K	1496.4
303.15 K	1486.7
313.15 K	1476.9
323.15 K	1467.3
333.15 K	1457.7
343.15 K	1448.2
353.15 K	1438.8

CCCCCCn1cc(C)[n+](C)c1CC.O=S(=O)([N-]S(=O)(=O)C(F)(F)F)C(F)(F)F + CCCCCC[n+]1c(C)cn(C)c1CC.O=S(=O)([N-]S(=O)(=O)C(F)(F)F)C(F)(F)F
[2], x1 = 0.813
Conditions	mass density [kg/m3]
293.15 K	1325.2
303.15 K	1316.2
313.15 K	1307.3
323.15 K	1298.5
333.15 K	1289.7
343.15 K	1281
353.15 K	1272.3

CCCCCCn1cc(C)[n+](C)c1.O=S(=O)([N-]S(=O)(=O)C(F)(F)F)C(F)(F)F + CCCCCC[n+]1cn(C)cc1C.O=S(=O)([N-]S(=O)(=O)C(F)(F)F)C(F)(F)F
[2], x1 = 0.637
Conditions	mass density [kg/m3]
293.15 K	1352.5
303.15 K	1343.3
313.15 K	1334.2
323.15 K	1325.2
333.15 K	1316.3
343.15 K	1307.4
353.15 K	1298.5

CCCCn1cc(C)[n+](C)c1.O=S(=O)([N-]S(=O)(=O)C(F)(F)F)C(F)(F)F + CCCC[n+]1cn(C)cc1C.O=S(=O)([N-]S(=O)(=O)C(F)(F)F)C(F)(F)F
[2], x1 = 0.637
Conditions	mass density [kg/m3]
313.15 K	1391.1
323.15 K	1381
333.15 K	1372.3
343.15 K	1363.1
353.15 K	1353.9

CCCCn1cc(C)[n+](C)c1CC.O=S(=O)([N-]S(=O)(=O)C(F)(F)F)C(F)(F)F + CCCCn1c(C)c[n+](C)c1CC.O=S(=O)([N-]S(=O)(=O)C(F)(F)F)C(F)(F)F
[2], x1 = 0.806
Conditions	mass density [kg/m3]
293.15 K	1371.2
303.15 K	1361.9
313.15 K	1352.8
323.15 K	1343.7
333.15 K	1334.7
343.15 K	1325.8
353.15 K	1316.9

CCC[n+]1cc(C)n(C)c1CC.O=S(=O)([N-]S(=O)(=O)C(F)(F)F)C(F)(F)F + CCC[n+]1c(C)cn(C)c1CC.O=S(=O)([N-]S(=O)(=O)C(F)(F)F)C(F)(F)F
[2], x1 = 0.763
Conditions	mass density [kg/m3]
293.15 K	1401.2
303.15 K	1391.7
313.15 K	1382.3
323.15 K	1373
333.15 K	1363.8
343.15 K	1354.7
353.15 K	1345.5

CCCn1cc(C)[n+](C)c1.O=S(=O)([N-]S(=O)(=O)C(F)(F)F)C(F)(F)F + CCCn1c[n+](C)cc1C.O=S(=O)([N-]S(=O)(=O)C(F)(F)F)C(F)(F)F
[2], x1 = 0.629
Conditions	mass density [kg/m3]
293.15 K	1445.4
303.15 K	1435.6
313.15 K	1425.9
323.15 K	1416.3
333.15 K	1406.9
343.15 K	1397.3
353.15 K	1387.9

CC[n+]1cc(C)n(C)c1.O=S(=O)([N-]S(=O)(=O)C(F)(F)F)C(F)(F)F + CC[n+]1cn(C)cc1C.O=S(=O)([N-]S(=O)(=O)C(F)(F)F)C(F)(F)F
[2], x1 = 0.602
Conditions	mass density [kg/m3]
293.15 K	1483.2
303.15 K	1473.3
313.15 K	1463.4
323.15 K	1453.6
333.15 K	1443.9
343.15 K	1434.2
353.15 K	1424.6

CCc1n(C)c(C)c[n+]1CC.O=S(=O)([N-]S(=O)(=O)C(F)(F)F)C(F)(F)F + CCc1n(C)cc(C)[n+]1CC.O=S(=O)([N-]S(=O)(=O)C(F)(F)F)C(F)(F)F
[2], x1 = 0.735
Conditions	mass density [kg/m3]
293.15 K	1431.7
303.15 K	1422
313.15 K	1412.6
323.15 K	1403.1
333.15 K	1393.8
343.15 K	1384.6
353.15 K	1375.3
